According to US20090291945A1, “CYSTEINE PROTEASE INHIBITORS” (Teijin Pharma Limited, priority 2008, published 2009):

Biological target: T1, cathepsin K (Homo sapiens, UniProt P43235)
T1 construct: the active enzyme was obtained as the enzyme fraction by using detergent containing lysis buffer; made in house; host or cells: HEK293T (GenHunter Corporation), transient expression; detergent lysate used as enzyme fraction
T1 sequence (P43235 115-329): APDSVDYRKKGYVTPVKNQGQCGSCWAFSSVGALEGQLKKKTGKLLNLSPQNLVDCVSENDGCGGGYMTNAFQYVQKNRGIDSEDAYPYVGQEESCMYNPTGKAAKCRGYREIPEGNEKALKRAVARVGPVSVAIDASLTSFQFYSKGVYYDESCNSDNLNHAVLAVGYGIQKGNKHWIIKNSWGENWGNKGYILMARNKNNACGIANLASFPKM
Test: Cathepsin K inhibitory activity (fluorescent substrate Z-Leu-Arg-MCA)
Assay type: biochemical
Details: enzyme expressed in HEK293T; 15 min preincubation, 30 min reaction at room temperature, pH 5.5; read-out: Activity Intensity (cathepsin K inhibitory activity, pIC50 class) (converted)
Experimental: Cathepsin K inhibitory activities of the compounds synthesized according to the methods of the above examples were measured.
Cathepsin K used for evaluation of inhibitory activity was transiently expressed in an animal cell HEK293T (made by GenHunter Corporation) and the active enzyme was obtained as the enzyme fraction by using detergent containing lysis buffer.
The enzyme solution A was prepared at 2.1 times final concentration by diluting the enzyme fraction with assay buffer (50 mM sodium acetate, 50 mM sodium chloride, 2 mM DTT, pH 5.5). The test compound solutions B were prepared at 50 times final target concentrations by dimethylsulfoxide (DMSO). As a substrate solution C, a solution of a fluorescent substrate, benzyloxycarbonyl-L-leucyl-L-arginyl-4-methyl-coumaryl-7-amide (Z-Leu-Arg-MCA (Peptide Institute Inc.), was prepared at 10 μM by an assay buffer.
To the enzyme solution A (38.4 μL) were added the test compound solutions B (1.6 μL) and mixed individually. The mixtures were incubated at room temperature for 15 minutes. To the incubated solutions were added the substrate solution C (40 μL) and the mixtures were reacted at room temperature for 30 minutes respectively. The fluorescence intensities of the enzyme reaction solutions were measured at excitation wavelength of 355 nm and measurement wavelength of 460 nm and the enzyme activities were calculated from these fluorescence intensities caused by 7-amino-4-methylcoumarine released. The enzyme activity with using DMSO instead of the test compound solution B was taken as 100% and the inhibitory rates at each concentration of the test compound were calculated. The […] response curve was fitted to the plots. The 50% inhibitory concentration against cathepsin K was calculated from this curve.
Note that the symbols (+, ++, and +++) in this table represent the inhibitory activity values as below. Here, pIC50 is the value representing a negative logarithm of IC50, (−log10(IC50)). IC50 is a 50% inhibitory concentration.

Row | Structure (SMILES) | IC50 [µM]
1 | COc1ccc(NC[C@H](CC[S+](C)[O-])NC(=O)[C@H](CC(C)C)N[C@@H](c2ccccc2)C(F)(F)F)c(OC)c1 (stereo partly drawn) [Compound 139, (2S)—N-((1S)-1-{[(2,4-dimethoxyphenyl)amino]methyl}-3-(methylsulfinyl)propyl)-2-[((1S)-2,2,2-trifluoro-1-phenylethyl)amino]-4-methylpentanamide] | 0.0316 to 10
2 | CC[C@@H](CNc1ccc(OCC(F)(F)C(F)F)cc1OC)NC(=O)[C@H](CC(C)(C)F)N[C@@H](c1ccccc1)C(F)(F)F [Compound 22] | 0.00316 to 0.0316
3 | CCOC(=O)C1CCN(c2ccc(NC[C@H](CC)NC(=O)[C@H](CC(C)C)N[C@@H](c3ccc(OC)nc3)C(F)(F)F)cc2)CC1 [Compound 50] | ≤ 0.00316
4 | COc1ccc([C@H](N[C@@H](CC(C)C)C(=O)N[C@@H](CCSC)CNc2ccc(OC)cc2OC)C(F)(F)F)cc1 [Compound 67] | 0.00316 to 0.0316
5 | CCOC(=O)c1ccnn1-c1ccc(NC[C@H](CC)NC(=O)[C@H](CC(C)C)N[C@@H](c2ccccc2)C(F)(F)F)cc1 [Compound 114] | 0.0316 to 10
6 | CC(C)C[C@H](N[C@@H](c1ccccc1)C(F)(F)F)C(=O)N[C@@H](C)CNc1ccc(N2CCOCC2)cc1 [Compound 71] | ≤ 0.00316
7 | CC[C@@H](CNc1ccc(OCCSC)cc1OC)NC(=O)[C@H](CC(C)(C)F)N[C@@H](c1ccc(Br)cc1)C(F)(F)F [Compound 16, (2S)-2-{[(1S)-1-(4-bromophenyl)-2,2,2-trifluoroethyl]amino}-N-[(1S)-1-({[2-methoxy-4-(2-methylthioethoxy)phenyl]amino}methyl)propyl]-4-fluoro-4-methylpentanamide] | ≤ 0.00316
8 | CC[C@@H](CNc1ccc(N2CCOCC2)cc1)NC(=O)[C@H](Cc1ccccc1)N[C@@H](c1ccccc1)C(F)(F)F [Compound 58] | 0.0316 to 10
9 | COc1ccc(NC[C@H](C)NC(=O)[C@H](CC(C)C)N[C@@H](c2ccccc2)C(F)(F)F)c(OC)c1 [Compound 70] | ≤ 0.00316
10 | COc1ccc(NC[C@H](CCS(C)(=O)=O)NC(=O)[C@H](CC(C)C)N[C@@H](c2ccccc2)C(F)(F)F)c(OC)c1 [Compound 80] | 0.00316 to 0.0316
11 | COc1ccc(NC[C@H](C)NC(=O)[C@H](CC(C)C)N[C@@H](c2ccc(S(C)(=O)=O)cc2)C(F)(F)F)c(OC)c1 [Compound 77] | 0.00316 to 0.0316
12 | CC[C@@H](CNc1ccc(N2CCOCC2)cc1)NC(=O)[C@H](CC(C)C)N[C@@H](c1ccc(Cl)cc1)C(F)(F)F [Compound 34] | ≤ 0.00316
13 | CC[C@@H](CNc1ccc(N2CCOCC2)cc1)NC(=O)[C@H](CC(C)C)N[C@@H](c1ccccn1)C(F)(F)F [Compound 32] | ≤ 0.00316
14 | CC[C@@H](CNc1ccc(-n2cccn2)cc1)NC(=O)[C@H](CC(C)C)N[C@@H](c1ccc(OC)nc1)C(F)(F)F [Compound 48] | 0.0316 to 10
15 | CCOC(=O)C1CCN(c2ccc(NC[C@H](CC)NC(=O)[C@H](CC(C)(C)F)N[C@@H](c3ccccc3)C(F)(F)F)cc2)CC1 [Compound 55] | ≤ 0.00316
16 | CC[C@@H](CNc1ccc(N2CCO[C@@H](C(=O)OC)C2)cc1)NC(=O)[C@H](CC(C)C)N[C@@H](c1ccccc1)C(F)(F)F [Compound 56] | ≤ 0.00316
17 | CC[C@@H](CNc1ccc(OCCS(C)(=O)=O)cc1OC)NC(=O)[C@H](CC(C)(C)F)N[C@@H](c1ccc(Br)cc1)C(F)(F)F [Compound 138-2, (2S)-2-{[(1S)-1-(4-bromophenyl)-2,2,2-trifluoroethyl]amino}-N-{(1S)-1-[({2-methoxy-4-[2-(methylsulfonyl)ethoxy]phenyl}amino)methyl]propyl}-4-fluoro-4-methylpentanamide] | ≤ 0.00316
18 | CCOC(=O)C(F)(F)Oc1ccc(NC[C@H](CC)NC(=O)[C@H](CC(C)(C)F)N[C@@H](c2ccccc2)C(F)(F)F)c(OC)c1 [Compound 111] | 0.0316 to 10
19 | CC[C@@H](CNc1ccc2c(c1)OCO2)NC(=O)[C@H](CC(C)C)N[C@@H](c1ccc(OC)cc1)C(F)(F)F [Compound 100] | 0.0316 to 10
20 | CC[C@@H](CNc1ccc(OCc2ccccc2)cc1)NC(=O)[C@H](CC(C)C)N[C@@H](c1ccccc1)C(F)(F)F [Compound 96] | 0.00316 to 0.0316
